Converted amounts (≈) assume the structure as drawn.
How the values were obtained:
[1] = Inhibition of PI3K p110alpha […] mutant in human MCF7 cells assessed as reduction in phosphorylation of Akt at T308 residue incubated for 2 hrs by ELISA; format: cell-based; details: MCF7, 2 h
[2] = Inhibition of PI3K p110alpha H1047R mutant in human T47D cells assessed as reduction in phosphorylation of Akt at T308 residue incubated for 2 hrs by ELISA; format: cell-based
MCF7 = assay: Antiproliferation activity against human MCF7 cells assessed as reduction in cell viability incubated for 7 days by Cell-titer Glo reagent based assay; format: functional; details: MCF7, 168 h
T47D = assay: Antiproliferation activity against human T47D cells assessed as reduction in cell viability incubated for 7 days by Cell-titer Glo reagent based assay; format: functional; details: 168 h
[3] = biological target: Serine/threonine-protein kinase mTOR (Homo sapiens, UniProt P42345); assay: Inhibition of mTOR in TSC1 null human MCF7 cells assessed as decrease in p70S6K phosphorylation at Thr389 residue incubated for 2 hrs by ELISA; format: cell-based
[4] = Half life in Wistar Han rat at 2 mg/kg, iv; format: ADME, organism-based; details: in vivo
Rat1 [5] = assay: Selectivity index, ratio of IC50 for recombinant human N-terminal Myr signal and C-terminal Flag-tagged PI3K p110delta to IC50 for recombinant human N-terminal Myr signal and C-terminal Flag-tagged PI3K p110alpha expressed in rat Rat1 cells; format: cell-based
[6] = Kinetic solubility of compound; format: physicochemical; details: read-out: Kinetic_solubility
Rat1 [7] = assay: Selectivity index, ratio of IC50 for recombinant human N-terminal Myr signal and C-terminal Flag-tagged PI3K p110beta to IC50 for recombinant human N-terminal Myr signal and C-terminal Flag-tagged PI3K p110alpha expressed in rat Rat1 cells; format: cell-based
[8] = biological target: Phosphatidylinositol 4,5-bisphosphate 3-kinase catalytic subunit alpha isoform (Homo sapiens, UniProt P42336); assay: Inhibition of recombinant human N-terminal Myr signal and C-terminal Flag-tagged PI3K p110alpha expressed in rat Rat1 cells; format: cell-based
Chain of Phosphatidylinositol 4,5-bisphosphate 3-kinase catalytic subunit alpha isoform (P42336 whole entry, canonical isoform): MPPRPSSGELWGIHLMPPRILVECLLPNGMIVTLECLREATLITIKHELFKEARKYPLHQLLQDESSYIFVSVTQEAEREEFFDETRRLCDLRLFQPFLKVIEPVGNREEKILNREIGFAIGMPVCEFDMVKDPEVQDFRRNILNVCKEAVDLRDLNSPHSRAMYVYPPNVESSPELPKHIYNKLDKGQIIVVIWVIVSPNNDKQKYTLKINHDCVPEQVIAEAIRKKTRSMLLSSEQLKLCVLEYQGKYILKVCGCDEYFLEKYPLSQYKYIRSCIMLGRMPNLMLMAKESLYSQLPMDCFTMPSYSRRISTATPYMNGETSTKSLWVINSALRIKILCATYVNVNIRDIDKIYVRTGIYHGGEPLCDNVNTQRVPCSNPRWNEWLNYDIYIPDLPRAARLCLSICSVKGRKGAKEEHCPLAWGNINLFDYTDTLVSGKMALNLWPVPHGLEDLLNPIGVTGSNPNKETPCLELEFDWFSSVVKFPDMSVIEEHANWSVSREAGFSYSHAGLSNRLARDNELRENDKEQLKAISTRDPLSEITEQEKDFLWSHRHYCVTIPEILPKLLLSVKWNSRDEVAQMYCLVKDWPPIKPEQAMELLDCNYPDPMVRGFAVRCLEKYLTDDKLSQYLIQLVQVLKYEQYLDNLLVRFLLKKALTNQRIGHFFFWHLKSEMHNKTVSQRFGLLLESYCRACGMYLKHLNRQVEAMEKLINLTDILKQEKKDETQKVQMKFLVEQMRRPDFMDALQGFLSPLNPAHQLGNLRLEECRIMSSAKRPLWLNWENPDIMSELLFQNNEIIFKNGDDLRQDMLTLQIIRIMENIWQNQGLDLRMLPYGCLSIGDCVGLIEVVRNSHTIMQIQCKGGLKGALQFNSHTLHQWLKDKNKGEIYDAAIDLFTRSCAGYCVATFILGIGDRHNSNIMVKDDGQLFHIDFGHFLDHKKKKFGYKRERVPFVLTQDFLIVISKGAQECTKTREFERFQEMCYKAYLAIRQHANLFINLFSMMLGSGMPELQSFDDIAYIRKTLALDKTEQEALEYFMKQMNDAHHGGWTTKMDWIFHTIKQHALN

[9] = Cmax in Wistar Han rat at 10 mg/kg, po; format: ADME, organism-based; set-up: route oral, dose 10 mg/kg; details: in vivo
[10] = AUC (0 to t) in Wistar Han rat at 2 mg/kg, iv; format: ADME, organism-based; set-up: dose 2 mg/kg; details: in vivo
Homo sapiens [11] = organism: Homo sapiens; assay: Selectivity index, ratio of IC50 for mTOR in human MCF7 cells to Ki for recombinant human full-length PI3K p110alpha/p85alpha; format: cell-based
[12] = Tmax in Wistar Han rat at 10 mg/kg, po; format: ADME, organism-based; details: in vivo
[13] = Thermodynamic solubility of compound at pH 7.4; format: physicochemical; details: buffer, read-out: Therm_solubility
Homo sapiens [14] = organism: Homo sapiens; assay: Selectivity index, ratio of IC50 for recombinant human N-terminal Myr signal and C-terminal Flag-tagged PI3K p110delta to Ki for recombinant human full-length PI3K p110alpha/p85alpha
Homo sapiens [15] = organism: Homo sapiens; assay: Selectivity index, ratio of IC50 for recombinant human N-terminal Myr signal and C-terminal Flag-tagged PI3K p110beta to Ki for recombinant human full-length PI3K p110alpha/p85alpha
[16] = biological target: PI3-kinase p110-delta/p85-alpha (Homo sapiens, UniProt O00329); assay: Inhibition of recombinant human PI3K p110delta/p85alpha using phosphatidylinositol 4,5-bisphosphate as substrate preincubated for 15 mins followed by addition of ATP and measured after 30 mins by fluorescence polarisation assay; format: protein-complex assay
Chain of PI3-kinase p110-delta/p85-alpha (P27986 whole entry, one chain of several, canonical isoform): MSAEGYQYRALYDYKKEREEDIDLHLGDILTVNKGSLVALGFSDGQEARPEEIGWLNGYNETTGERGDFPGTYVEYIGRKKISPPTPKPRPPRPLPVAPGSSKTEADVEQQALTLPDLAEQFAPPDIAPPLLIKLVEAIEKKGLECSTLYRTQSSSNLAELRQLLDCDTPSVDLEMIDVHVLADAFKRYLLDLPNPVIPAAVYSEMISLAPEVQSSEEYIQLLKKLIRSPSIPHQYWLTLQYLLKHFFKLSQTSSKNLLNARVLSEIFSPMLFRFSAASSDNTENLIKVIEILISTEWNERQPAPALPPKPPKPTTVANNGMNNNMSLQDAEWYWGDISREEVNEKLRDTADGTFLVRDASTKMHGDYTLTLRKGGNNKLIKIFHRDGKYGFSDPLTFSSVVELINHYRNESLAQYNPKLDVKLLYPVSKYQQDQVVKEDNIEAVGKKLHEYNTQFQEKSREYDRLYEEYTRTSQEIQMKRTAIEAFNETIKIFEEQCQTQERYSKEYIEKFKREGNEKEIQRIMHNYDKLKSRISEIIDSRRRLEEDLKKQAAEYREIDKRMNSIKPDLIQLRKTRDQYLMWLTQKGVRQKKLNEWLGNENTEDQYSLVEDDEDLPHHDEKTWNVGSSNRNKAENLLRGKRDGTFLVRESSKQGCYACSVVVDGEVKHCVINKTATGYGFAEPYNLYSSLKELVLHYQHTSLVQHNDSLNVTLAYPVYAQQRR

[17] = biological target: T1, Phosphatidylinositol 4,5-bisphosphate 3-kinase catalytic subunit delta isoform (Homo sapiens, UniProt O00329); assay: Inhibition of recombinant human N-terminal Myr signal and C-terminal Flag-tagged PI3K p110delta expressed in rat Rat1 cells; format: cell-based
T1 sequence (O00329 whole entry): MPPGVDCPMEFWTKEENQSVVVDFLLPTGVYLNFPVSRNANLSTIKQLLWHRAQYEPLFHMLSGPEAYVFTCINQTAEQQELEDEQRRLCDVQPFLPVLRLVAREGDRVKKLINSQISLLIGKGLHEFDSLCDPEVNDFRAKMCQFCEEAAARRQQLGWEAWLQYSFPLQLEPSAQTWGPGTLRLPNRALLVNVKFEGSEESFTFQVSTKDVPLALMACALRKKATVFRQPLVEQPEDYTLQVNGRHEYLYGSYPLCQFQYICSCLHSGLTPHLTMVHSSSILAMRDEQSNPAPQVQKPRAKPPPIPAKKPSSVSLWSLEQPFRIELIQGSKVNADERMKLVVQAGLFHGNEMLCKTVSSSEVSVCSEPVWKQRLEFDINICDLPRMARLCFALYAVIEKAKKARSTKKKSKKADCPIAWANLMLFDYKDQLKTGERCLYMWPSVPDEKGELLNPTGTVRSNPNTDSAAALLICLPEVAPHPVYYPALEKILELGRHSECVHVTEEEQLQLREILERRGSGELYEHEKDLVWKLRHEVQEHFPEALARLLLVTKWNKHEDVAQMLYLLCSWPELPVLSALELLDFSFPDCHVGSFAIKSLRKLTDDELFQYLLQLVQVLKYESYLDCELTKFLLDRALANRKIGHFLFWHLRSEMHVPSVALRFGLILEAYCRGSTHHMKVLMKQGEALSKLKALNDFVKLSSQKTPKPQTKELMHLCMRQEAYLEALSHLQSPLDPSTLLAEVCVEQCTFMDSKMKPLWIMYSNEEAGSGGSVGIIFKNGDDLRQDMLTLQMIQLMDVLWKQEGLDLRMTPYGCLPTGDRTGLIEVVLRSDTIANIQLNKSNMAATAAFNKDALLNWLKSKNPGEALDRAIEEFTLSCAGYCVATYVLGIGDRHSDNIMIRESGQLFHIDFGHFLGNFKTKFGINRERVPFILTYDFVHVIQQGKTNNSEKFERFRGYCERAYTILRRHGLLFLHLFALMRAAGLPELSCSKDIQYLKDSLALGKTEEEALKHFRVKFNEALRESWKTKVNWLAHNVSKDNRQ

[18] = biological target: PI3-kinase p110-alpha/p85-alpha (Homo sapiens, UniProt P42336); assay: Inhibition of recombinant human full-length PI3K p110alpha/p85alpha (322 to 600) expressed in baculovirus infected Sf21 cells using phosphatidylinositol 4,5-bisphosphate as substrate preincubated for 15 mins followed by addition of ATP and measured after 30 mins by fluorescence polarisation assay
Chain of PI3-kinase p110-alpha/p85-alpha (P27986 whole entry): as the sequence (P27986 whole entry, one chain of several, canonical isoform) above
Chain of PI3-kinase p110-alpha/p85-alpha (P42336 whole entry): as the sequence (P42336 whole entry, canonical isoform) above

[19] = Oral bioavailability in Wistar Han rat at 10 mg/kg; format: ADME, organism-based; details: in vivo
[20] = Distribution coefficient, logD of compound at pH 7.4; format: physicochemical; details: octanol/water
[21] = Passive permeability of compound in RRCK cells; format: ADME, cell-based, Canis lupus familiaris, MDCKII-LE; details: dog, MDCK; read-out: permeability
[22] = Volume of distribution at steady state in Wistar Han rat at 2 mg/kg, iv; format: ADME, organism-based; details: in vivo, read-out: Vdss
[23] = Plasma clearance in Wistar Han rat at 2 mg/kg, iv; format: ADME, organism-based
[24] = AUC (0 to t) in Wistar Han rat at 10 mg/kg, po; format: ADME, organism-based; set-up: dose 10 mg/kg; details: in vivo
PI3K p110 beta/p85 alpha = PI3K p110 beta/p85 alpha (Homo sapiens, UniProt P42338); assay: Inhibition of recombinant human PI3K p110beta/p85alpha using phosphatidylinositol 4,5-bisphosphate as substrate preincubated for 15 mins followed by addition of ATP and measured after 30 mins by fluorescence polarisation assay; format: protein-complex assay
Chain of PI3K p110 beta/p85 alpha (P27986 whole entry, canonical isoform): as the sequence (P27986 whole entry, one chain of several, canonical isoform) above
Chain of PI3K p110 beta/p85 alpha (P42338 whole entry, canonical isoform): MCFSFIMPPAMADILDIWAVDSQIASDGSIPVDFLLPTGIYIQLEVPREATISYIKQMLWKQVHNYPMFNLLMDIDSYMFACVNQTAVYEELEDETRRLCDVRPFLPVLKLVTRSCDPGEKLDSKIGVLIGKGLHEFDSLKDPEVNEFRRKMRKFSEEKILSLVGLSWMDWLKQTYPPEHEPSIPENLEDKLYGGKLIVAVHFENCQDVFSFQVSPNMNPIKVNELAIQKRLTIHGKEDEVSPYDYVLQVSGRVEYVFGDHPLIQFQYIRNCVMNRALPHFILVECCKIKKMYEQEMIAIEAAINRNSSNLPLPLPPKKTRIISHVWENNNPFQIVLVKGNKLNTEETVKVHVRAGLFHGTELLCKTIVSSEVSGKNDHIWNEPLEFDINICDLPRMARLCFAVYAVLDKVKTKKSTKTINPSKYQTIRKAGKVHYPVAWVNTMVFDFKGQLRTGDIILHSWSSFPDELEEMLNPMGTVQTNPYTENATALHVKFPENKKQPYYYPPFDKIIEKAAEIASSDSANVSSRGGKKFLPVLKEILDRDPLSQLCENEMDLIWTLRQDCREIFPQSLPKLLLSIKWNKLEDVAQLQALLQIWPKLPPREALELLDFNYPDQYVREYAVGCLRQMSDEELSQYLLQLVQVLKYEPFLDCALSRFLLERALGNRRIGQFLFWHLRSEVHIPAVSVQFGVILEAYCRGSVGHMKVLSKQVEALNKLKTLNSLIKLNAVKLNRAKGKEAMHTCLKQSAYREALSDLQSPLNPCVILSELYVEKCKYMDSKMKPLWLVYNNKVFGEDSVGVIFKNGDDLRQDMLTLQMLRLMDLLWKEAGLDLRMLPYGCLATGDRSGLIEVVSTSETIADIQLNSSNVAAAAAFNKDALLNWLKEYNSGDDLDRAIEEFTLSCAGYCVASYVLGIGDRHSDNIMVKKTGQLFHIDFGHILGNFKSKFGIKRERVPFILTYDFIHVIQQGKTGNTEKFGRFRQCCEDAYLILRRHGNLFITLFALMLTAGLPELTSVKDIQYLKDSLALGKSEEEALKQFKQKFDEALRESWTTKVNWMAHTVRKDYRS

[25] = biological target: Phosphatidylinositol 4,5-bisphosphate 3-kinase catalytic subunit beta isoform (Homo sapiens, UniProt P42338); assay: Inhibition of recombinant human N-terminal Myr signal and C-terminal Flag-tagged PI3K p110beta expressed in rat Rat1 cells; format: cell-based
Chain of Phosphatidylinositol 4,5-bisphosphate 3-kinase catalytic subunit beta isoform (P42338 whole entry, canonical isoform): as above

[26] = Apparent intrinsic clearance in human liver microsomes; format: ADME, Microsome; details: read-out: CLH(app)
[27] = Kinetic solubility of compound at pH 7.4 after 24 hrs by LC/MS/MS analysis; format: physicochemical; details: buffer, read-out: Kinetic_solubility

Cc1nc(NC(=O)N2CCC[C@H]2C(N)=O)sc1-c1ccnc(C(C)(C)C(F)(F)F)c1 [ALPELISIB]
IC50 [1]: 39 nM | IC50 [2]: 30 nM | IC50 (MCF7): 530 nM | IC50 (T47D): 420 nM | IC50 [3]: 3000 nM

Nc1ncc(-c2nc(N3CCOCC3)nc(N[C@@]3(CO)CCN(C(=O)OCC(F)F)C3)c2F)cn1
IC50 [1]: 7.8 nM | half-life [4]: 3.6 h | Ratio IC50 (Rat1 [5]): 9 | solubility kinetic [6]: 2.5 µM (≈ 1.25 µg/mL) | Ratio IC50 (Rat1 [7]): 20 | IC50 [8]: 18 nM | Cmax [9]: 330 ng/mL | AUC(0-t) [10]: 1100 ng·h/mL | IC50 [2]: 8.7 nM | Selectivity Index (Homo sapiens [11]): 83 | Tmax [12]: 1 h | solubility thermodynamic [13]: 6.2 µg/mL (≈ 12.4 µM) | Selectivity Index (Homo sapiens [14]): 9 | Selectivity Index (Homo sapiens [15]): 20 | Ki [16]: < 0.28 nM | IC50 [17]: 160 nM | Ki [18]: < 0.018 nM | IC50 (MCF7): 62 nM | bioavailability [19]: 25% | logD [20]: 1.9 | IC50 (T47D): 32 nM | Papp [21]: 13 ×10⁻⁶ cm/s | Vd [22]: 3 L/kg | clearance [23]: 30 mL/min/kg | IC50 [3]: 1500 nM | AUC(0-t) [24]: 1400 ng·h/mL | Ki (PI3K p110 beta/p85 alpha): 2 nM | IC50 [25]: 360 nM | microsomal CLint [26]: < 18 µL/min/mg | solubility kinetic at 24 h [27]: 1.3 µg/mL (≈ 2.61 µM)

— ChEMBL document CHEMBL4706640, “Structure-Based Drug Design and Synthesis of PI3Kα-Selective Inhibitor (PF-06843195)” (J Med Chem, 2021)
